Laboratory results as given in the supplement of paper PMC12076712.

Legend:
Assay in all cases: pIC50, kinobeads binding competition
Details in all cases: cell material: Jurkat lysate
KSR1 = target: T1, KSR1 (UniProt Q8IVT5)
T1 sequence (whole entry): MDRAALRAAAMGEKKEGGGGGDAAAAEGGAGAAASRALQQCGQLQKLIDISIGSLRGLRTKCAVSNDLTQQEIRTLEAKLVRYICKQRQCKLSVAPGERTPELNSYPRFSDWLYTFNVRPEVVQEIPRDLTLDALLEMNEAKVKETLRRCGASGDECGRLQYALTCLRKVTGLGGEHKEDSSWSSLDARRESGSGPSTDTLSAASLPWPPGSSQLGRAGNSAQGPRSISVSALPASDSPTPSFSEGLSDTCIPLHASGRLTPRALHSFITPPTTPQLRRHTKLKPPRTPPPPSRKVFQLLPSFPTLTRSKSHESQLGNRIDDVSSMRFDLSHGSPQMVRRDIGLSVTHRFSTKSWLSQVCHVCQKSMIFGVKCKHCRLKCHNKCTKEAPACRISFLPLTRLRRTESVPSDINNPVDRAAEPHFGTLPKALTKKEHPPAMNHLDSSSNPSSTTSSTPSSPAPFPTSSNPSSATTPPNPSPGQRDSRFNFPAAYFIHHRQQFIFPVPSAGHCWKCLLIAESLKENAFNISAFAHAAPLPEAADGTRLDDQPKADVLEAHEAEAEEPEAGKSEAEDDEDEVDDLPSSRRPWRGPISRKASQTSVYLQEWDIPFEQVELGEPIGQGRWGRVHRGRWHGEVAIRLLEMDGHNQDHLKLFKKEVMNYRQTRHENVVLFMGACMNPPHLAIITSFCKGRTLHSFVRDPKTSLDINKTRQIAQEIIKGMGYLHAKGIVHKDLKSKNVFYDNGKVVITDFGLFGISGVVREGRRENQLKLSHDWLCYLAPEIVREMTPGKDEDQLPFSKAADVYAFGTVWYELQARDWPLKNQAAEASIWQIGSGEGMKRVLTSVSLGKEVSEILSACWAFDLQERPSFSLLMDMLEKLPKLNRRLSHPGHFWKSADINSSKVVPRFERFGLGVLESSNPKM

UniProt O00444 = target: T2, UniProt O00444
T2 sequence (whole entry): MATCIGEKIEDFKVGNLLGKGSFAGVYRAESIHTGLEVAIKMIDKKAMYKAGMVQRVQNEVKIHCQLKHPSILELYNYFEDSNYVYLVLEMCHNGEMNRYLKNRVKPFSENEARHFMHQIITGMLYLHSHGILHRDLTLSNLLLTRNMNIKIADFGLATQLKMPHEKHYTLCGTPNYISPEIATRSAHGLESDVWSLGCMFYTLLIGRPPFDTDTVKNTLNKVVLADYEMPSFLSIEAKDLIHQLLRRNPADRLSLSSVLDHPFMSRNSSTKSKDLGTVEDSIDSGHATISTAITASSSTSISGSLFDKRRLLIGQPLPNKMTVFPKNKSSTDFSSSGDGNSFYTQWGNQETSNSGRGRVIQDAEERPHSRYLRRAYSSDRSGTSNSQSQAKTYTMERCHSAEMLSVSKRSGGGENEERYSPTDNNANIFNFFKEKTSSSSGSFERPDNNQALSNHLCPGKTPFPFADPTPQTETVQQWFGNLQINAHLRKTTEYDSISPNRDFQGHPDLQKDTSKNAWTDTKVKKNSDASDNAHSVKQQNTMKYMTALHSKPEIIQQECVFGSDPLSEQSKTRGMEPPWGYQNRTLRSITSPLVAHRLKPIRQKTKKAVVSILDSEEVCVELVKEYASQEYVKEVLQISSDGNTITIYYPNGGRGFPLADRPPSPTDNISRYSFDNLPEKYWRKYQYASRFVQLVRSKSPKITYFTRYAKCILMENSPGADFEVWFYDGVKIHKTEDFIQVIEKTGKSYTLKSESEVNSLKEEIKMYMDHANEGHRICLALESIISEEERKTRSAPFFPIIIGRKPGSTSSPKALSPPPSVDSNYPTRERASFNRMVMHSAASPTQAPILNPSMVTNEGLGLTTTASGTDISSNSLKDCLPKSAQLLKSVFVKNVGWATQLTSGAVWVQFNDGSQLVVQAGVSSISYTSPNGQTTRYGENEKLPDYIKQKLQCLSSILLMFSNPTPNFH

UniProt P45985 = target: T3, UniProt P45985
T3 sequence (whole entry): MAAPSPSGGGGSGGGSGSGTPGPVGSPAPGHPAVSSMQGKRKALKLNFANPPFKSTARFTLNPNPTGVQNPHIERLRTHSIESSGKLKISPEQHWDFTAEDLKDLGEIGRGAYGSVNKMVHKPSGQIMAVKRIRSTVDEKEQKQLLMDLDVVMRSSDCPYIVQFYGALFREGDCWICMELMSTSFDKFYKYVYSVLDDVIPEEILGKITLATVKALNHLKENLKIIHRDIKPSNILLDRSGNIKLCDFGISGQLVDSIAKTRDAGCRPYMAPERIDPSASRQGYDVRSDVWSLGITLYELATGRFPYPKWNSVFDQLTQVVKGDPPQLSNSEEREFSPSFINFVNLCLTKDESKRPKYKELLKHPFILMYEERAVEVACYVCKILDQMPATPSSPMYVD

UniProt Q8IW41 = target: T4, UniProt Q8IW41
T4 sequence (whole entry): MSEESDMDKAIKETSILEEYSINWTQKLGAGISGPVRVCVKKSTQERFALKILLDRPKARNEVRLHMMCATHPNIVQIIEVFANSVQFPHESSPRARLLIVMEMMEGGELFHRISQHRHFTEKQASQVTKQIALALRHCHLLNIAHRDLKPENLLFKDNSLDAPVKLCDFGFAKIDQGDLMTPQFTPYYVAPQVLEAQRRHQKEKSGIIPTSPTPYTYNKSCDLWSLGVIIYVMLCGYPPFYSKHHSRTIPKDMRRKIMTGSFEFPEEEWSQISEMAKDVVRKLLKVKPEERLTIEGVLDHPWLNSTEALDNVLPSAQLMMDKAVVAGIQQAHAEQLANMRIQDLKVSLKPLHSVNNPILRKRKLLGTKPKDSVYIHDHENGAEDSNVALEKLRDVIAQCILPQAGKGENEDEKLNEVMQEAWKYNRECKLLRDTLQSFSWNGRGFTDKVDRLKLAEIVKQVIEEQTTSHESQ

AKT2 = AKT2 (UniProt P31751)
UniProt Q13164 = target: UniProt Q13164

Measured: pIC50

AKT2, sequence (P31751 whole entry): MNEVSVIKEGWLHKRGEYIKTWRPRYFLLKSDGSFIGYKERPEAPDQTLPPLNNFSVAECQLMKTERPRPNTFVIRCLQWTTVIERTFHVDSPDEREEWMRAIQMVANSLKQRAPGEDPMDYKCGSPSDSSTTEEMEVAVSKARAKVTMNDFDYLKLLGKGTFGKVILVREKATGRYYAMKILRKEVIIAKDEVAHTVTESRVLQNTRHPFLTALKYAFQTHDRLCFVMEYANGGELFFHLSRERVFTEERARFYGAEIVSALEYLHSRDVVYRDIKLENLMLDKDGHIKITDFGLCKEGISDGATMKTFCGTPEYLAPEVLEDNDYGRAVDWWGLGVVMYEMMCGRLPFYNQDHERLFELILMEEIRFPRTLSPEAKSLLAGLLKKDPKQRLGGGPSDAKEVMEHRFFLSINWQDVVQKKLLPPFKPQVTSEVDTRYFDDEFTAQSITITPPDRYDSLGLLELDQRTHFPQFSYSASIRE
UniProt Q13164, sequence (Q13164 whole entry, looked up): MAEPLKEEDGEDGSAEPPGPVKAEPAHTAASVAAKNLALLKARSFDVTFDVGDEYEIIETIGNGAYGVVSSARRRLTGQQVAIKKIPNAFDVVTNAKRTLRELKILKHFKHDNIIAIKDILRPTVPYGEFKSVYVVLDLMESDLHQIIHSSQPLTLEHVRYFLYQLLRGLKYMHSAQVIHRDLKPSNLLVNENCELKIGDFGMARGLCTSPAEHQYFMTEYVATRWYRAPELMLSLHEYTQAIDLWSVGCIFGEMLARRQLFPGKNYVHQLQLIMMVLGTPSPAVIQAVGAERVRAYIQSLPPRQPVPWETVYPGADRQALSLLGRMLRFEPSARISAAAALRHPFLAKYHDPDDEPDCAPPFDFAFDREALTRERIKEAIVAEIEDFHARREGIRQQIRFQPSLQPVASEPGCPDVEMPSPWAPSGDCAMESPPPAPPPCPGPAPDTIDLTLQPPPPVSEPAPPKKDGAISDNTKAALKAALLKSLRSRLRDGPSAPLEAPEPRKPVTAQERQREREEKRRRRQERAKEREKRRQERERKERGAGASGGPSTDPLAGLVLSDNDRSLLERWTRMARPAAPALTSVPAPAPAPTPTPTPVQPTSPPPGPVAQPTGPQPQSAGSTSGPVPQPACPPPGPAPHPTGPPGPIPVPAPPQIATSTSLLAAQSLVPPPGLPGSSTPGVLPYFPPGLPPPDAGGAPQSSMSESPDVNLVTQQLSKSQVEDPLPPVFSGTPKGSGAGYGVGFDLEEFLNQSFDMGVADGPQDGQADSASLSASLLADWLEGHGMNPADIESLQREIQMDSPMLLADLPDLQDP

CCc1cnn2c(NCc3ccc[n+]([O-])c3)cc(N3CCCC[C@H]3CCO)nc12 [dinaciclib]
< 4.52: all assays above
